Reference: PubChem BioAssay (NCI)
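Cells were grown in 96-well plates and exposed to each compound for 48 hours at five concentrations; endpoints were interpolated linearly between bracketing concentrations, or set to the highest concentration if not reached. Abbreviation: GI50, concentration required for 50% inhibition of growth. TGI denotes the concentration required for complete inhibition of growth.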

How the values were obtained:
Experiment in all cases: NCI anticancer screen, dose series, 48 h
HCC-2998 colon = tested on: HCC-2998 colon
SNB-19 CNS = tested on: SNB-19 CNS
IGROV1 ovarian = tested on: IGROV1 ovarian
SR leukemia = tested on: SR leukemia
SN12C renal = tested on: SN12C renal
786-0 renal = tested on: 786-0 renal
NCI/ADR-RES ovarian = tested on: NCI/ADR-RES ovarian
CAKI-1 renal = tested on: CAKI-1 renal
DU-145 prostate = tested on: DU-145 prostate
SW-620 colon = tested on: SW-620 colon
MDA-MB-231 breast = tested on: MDA-MB-231 breast
K-562 leukemia = tested on: K-562 leukemia
SF-268 CNS = tested on: SF-268 CNS
UO-31 renal = tested on: UO-31 renal
UACC-62 melanoma = tested on: UACC-62 melanoma
A549 NSCLC = tested on: A549 NSCLC
A498 renal = tested on: A498 renal
CCRF-CEM leukemia = tested on: CCRF-CEM leukemia
U251 CNS = tested on: U251 CNS
OVCAR-3 ovarian = tested on: OVCAR-3 ovarian
MOLT-4 leukemia = tested on: MOLT-4 leukemia
LOX IMVI melanoma = tested on: LOX IMVI melanoma
RXF 393 renal = tested on: RXF 393 renal
NCI-H522 lung = tested on: NCI-H522 lung
HOP-92 NSCLC = tested on: HOP-92 NSCLC
SNB-75 CNS = tested on: SNB-75 CNS
NCI-H23 lung = tested on: NCI-H23 lung
UACC-257 melanoma = tested on: UACC-257 melanoma
SK-MEL-2 melanoma = tested on: SK-MEL-2 melanoma
OVCAR-8 ovarian = tested on: OVCAR-8 ovarian
OVCAR-5 ovarian = tested on: OVCAR-5 ovarian
RPMI-8226 leukemia = tested on: RPMI-8226 leukemia
BT-549 breast = tested on: BT-549 breast
ACHN renal = tested on: ACHN renal
PC-3 prostate = tested on: PC-3 prostate
COLO 205 colon = tested on: COLO 205 colon
MDA-MB-435 = tested on: MDA-MB-435
EKVX NSCLC = tested on: EKVX NSCLC
MALME-3M melanoma = tested on: MALME-3M melanoma
M14 melanoma = tested on: M14 melanoma
HCT-15 colon = tested on: HCT-15 colon
HCT-116 colon = tested on: HCT-116 colon
SK-OV-3 ovarian = tested on: SK-OV-3 ovarian
HT29 colon = tested on: HT29 colon
T-47D breast = tested on: T-47D breast
HOP-62 NSCLC = tested on: HOP-62 NSCLC
HS 578T breast = tested on: HS 578T breast
MCF7 breast = tested on: MCF7 breast
SF-539 CNS = tested on: SF-539 CNS
KM12 colon = tested on: KM12 colon
SK-MEL-28 melanoma = tested on: SK-MEL-28 melanoma
NCI-H460 lung = tested on: NCI-H460 lung
TK-10 renal = tested on: TK-10 renal
SK-MEL-5 melanoma = tested on: SK-MEL-5 melanoma
NCI-H226 lung = tested on: NCI-H226 lung
SF-295 CNS = tested on: SF-295 CNS
OVCAR-4 ovarian = tested on: OVCAR-4 ovarian

Structure (SMILES): Cc1ccc(NC(=O)Nc2nc3ccc([N+](=O)[O-])cc3s2)cc1
- GI50 (HCC-2998 colon): 2.6 µM
- TGI (HCC-2998 colon): 10.1 µM
- GI50 (SNB-19 CNS): 2.7 µM
- TGI (SNB-19 CNS): 13.4 µM
- GI50 (IGROV1 ovarian): 3.59 µM
- TGI (IGROV1 ovarian): 14.3 µM
- GI50 (SR leukemia): 1.29 µM
- TGI (SR leukemia): 5.06 µM
- GI50 (SN12C renal): 2.54 µM
- TGI (SN12C renal): 12.5 µM
- GI50 (786-0 renal): 2.89 µM
- TGI (786-0 renal): 12.4 µM
- GI50 (NCI/ADR-RES ovarian): 2.5 µM
- TGI (NCI/ADR-RES ovarian): 7.79 µM
- GI50 (CAKI-1 renal): 1.79 µM
- TGI (CAKI-1 renal): 6.23 µM
- GI50 (DU-145 prostate): 3.26 µM
- TGI (DU-145 prostate): 11.7 µM
- GI50 (SW-620 colon): 2.93 µM
- TGI (SW-620 colon): 10.7 µM
- GI50 (MDA-MB-231 breast): 3.04 µM
- TGI (MDA-MB-231 breast): 10.3 µM
- GI50 (K-562 leukemia): 1.44 µM
- TGI (K-562 leukemia): 9.56 µM
- GI50 (SF-268 CNS): 3.52 µM
- TGI (SF-268 CNS): 16 µM
- GI50 (UO-31 renal): 2.51 µM
- TGI (UO-31 renal): 10.5 µM
- GI50 (UACC-62 melanoma): 2.77 µM
- TGI (UACC-62 melanoma): 13.7 µM
- GI50 (A549 NSCLC): 2.79 µM
- TGI (A549 NSCLC): 10.5 µM
- GI50 (A498 renal): 1.41 µM
- TGI (A498 renal): 4.38 µM
- GI50 (CCRF-CEM leukemia): 2.13 µM
- TGI (CCRF-CEM leukemia): 7.71 µM
- GI50 (U251 CNS): 2.34 µM
- TGI (U251 CNS): 10.9 µM
- GI50 (OVCAR-3 ovarian): 2.43 µM
- TGI (OVCAR-3 ovarian): 9.63 µM
- GI50 (MOLT-4 leukemia): 2.09 µM
- TGI (MOLT-4 leukemia): 6.33 µM
- GI50 (LOX IMVI melanoma): 2.36 µM
- TGI (LOX IMVI melanoma): 5.96 µM
- GI50 (RXF 393 renal): 2.01 µM
- TGI (RXF 393 renal): 5.75 µM
- GI50 (NCI-H522 lung): 1.14 µM
- TGI (NCI-H522 lung): 5.21 µM
- GI50 (HOP-92 NSCLC): 1.37 µM
- TGI (HOP-92 NSCLC): 5.44 µM
- GI50 (SNB-75 CNS): 1.95 µM
- TGI (SNB-75 CNS): 6.27 µM
- GI50 (NCI-H23 lung): 1.89 µM
- TGI (NCI-H23 lung): 6.78 µM
- GI50 (UACC-257 melanoma): 1.82 µM
- TGI (UACC-257 melanoma): 6.78 µM
- GI50 (SK-MEL-2 melanoma): 2.19 µM
- TGI (SK-MEL-2 melanoma): 6.03 µM
- GI50 (OVCAR-8 ovarian): 3.2 µM
- TGI (OVCAR-8 ovarian): 14 µM
- GI50 (OVCAR-5 ovarian): 4.32 µM
- TGI (OVCAR-5 ovarian): 18.3 µM
- GI50 (RPMI-8226 leukemia): 1.26 µM
- TGI (RPMI-8226 leukemia): 3.77 µM
- GI50 (BT-549 breast): 2.02 µM
- TGI (BT-549 breast): 5.88 µM
- GI50 (ACHN renal): 2.78 µM
- TGI (ACHN renal): 11.4 µM
- GI50 (PC-3 prostate): 2.14 µM
- TGI (PC-3 prostate): 8.83 µM
- GI50 (COLO 205 colon): 1.91 µM
- TGI (COLO 205 colon): 3.84 µM
- GI50 (MDA-MB-435): 2.32 µM
- TGI (MDA-MB-435): 9.33 µM
- GI50 (EKVX NSCLC): 2.75 µM
- TGI (EKVX NSCLC): 10.9 µM
- GI50 (MALME-3M melanoma): 2.66 µM
- TGI (MALME-3M melanoma): 7.71 µM
- GI50 (M14 melanoma): 2.92 µM
- TGI (M14 melanoma): 10.6 µM
- GI50 (HCT-15 colon): 2.37 µM
- TGI (HCT-15 colon): 9.19 µM
- GI50 (HCT-116 colon): 1.79 µM
- TGI (HCT-116 colon): 5.22 µM
- GI50 (SK-OV-3 ovarian): 2.91 µM
- TGI (SK-OV-3 ovarian): 10.1 µM
- GI50 (HT29 colon): 3.28 µM
- TGI (HT29 colon): 11.6 µM
- GI50 (T-47D breast): 0.799 µM
- TGI (T-47D breast): 6.4 µM
- GI50 (HOP-62 NSCLC): 3.1 µM
- TGI (HOP-62 NSCLC): 10.7 µM
- GI50 (HS 578T breast): 3.02 µM
- TGI (HS 578T breast): 13.9 µM
- GI50 (MCF7 breast): 1.99 µM
- TGI (MCF7 breast): 7.77 µM
- GI50 (SF-539 CNS): 3.15 µM
- TGI (SF-539 CNS): 10.4 µM
- GI50 (KM12 colon): 2.45 µM
- TGI (KM12 colon): 8.15 µM
- GI50 (SK-MEL-28 melanoma): 3.1 µM
- TGI (SK-MEL-28 melanoma): 15.1 µM
- GI50 (NCI-H460 lung): 2.84 µM
- TGI (NCI-H460 lung): 10.4 µM
- GI50 (TK-10 renal): 2.94 µM
- TGI (TK-10 renal): 11.6 µM
- GI50 (SK-MEL-5 melanoma): 1.42 µM
- TGI (SK-MEL-5 melanoma): 3.51 µM
- GI50 (NCI-H226 lung): 2.75 µM
- TGI (NCI-H226 lung): 12.3 µM
- GI50 (SF-295 CNS): 1.92 µM
- TGI (SF-295 CNS): 5.21 µM
- GI50 (OVCAR-4 ovarian): 1.41 µM
- TGI (OVCAR-4 ovarian): 9.32 µM
